Assay results reported in patent US20170303554A1, “METHOD OF SANITIZING EDIBLE SEEDS, PARTICULARLY MUCILAGE PRODUCING SEEDS” (AGRI-NEO INC., priority 2014, published 2017).

Legend:
[1] = system: Total count Aerobic bacteria; assay: Total aerobic count on seeds, grains and spices sprayed with sanitizing solutions (Example 1); assay type: cell-based; settings: for bactericidal effect, conclusion in words: 40 L per 1 tonne
Method: (§1) Seeds were mechanically cleaned and spread in stainless steel containers. Each 100 grams seeds were sprayed with 4 ml total solutions descried above via conventional trigger vaporizer. This solution is equivalent to 40 L disinfecting solution total sprayed on 1-tonne seeds. Seeds, grains and spices were selected to represent all families and types of seeds, grains and spices. Another criterium was to select seeds and grains contaminated with a high count of total aerobic bacteria, yeast, mold, E. coli, Salmonella sp. and other pathogenic microorganisms.
(§2) Seeds, grains and spices treated were: • Whole dried pea, • Split pea dried, • Pea fiber, • Vanilla, • Chia, • Sprouted flax and chia, • Flax, • Hemp, and • Black pepper seeds

Y&M (yeast and mold) = assay: Yeast and mold (Y&M) count on sprayed seeds, grains and spices (Example 1); assay type: cell-based; settings: 40 L/tonne; for Y&M, Av: average; for Y&M, n1: replicate n1; for Y&M, n2: replicate n2
Method: as §1, §2

CC(=O)OO [Peracetic acid]
bactericidal effect, conclusion in words ([1]; black pepper): strong bactericidal agent | bactericidal effect, conclusion in words ([1]; hemp): strong bactericidal agent | bactericidal effect, conclusion in words ([1]; pea fiber): strong bactericidal agent | bactericidal effect, conclusion in words ([1]; split pea): strong bactericidal agent | bactericidal effect, conclusion in words ([1]; vanilla): strong bactericidal agent | bactericidal effect, conclusion in words ([1]; whole dried pea): strong bactericidal agent

CCO [2- Alcohol - ethanol, ethanol]
effect when combined with peracetic acid formulations (synergy), in words ([1]; black pepper): synergistic with peracetic acid | bactericidal effect, conclusion in words ([1]; black pepper): not a strong bactericidal agent | effect when combined with peracetic acid formulations (synergy), in words ([1]; hemp): synergistic with peracetic acid | bactericidal effect, conclusion in words ([1]; hemp): not a strong bactericidal agent | effect when combined with peracetic acid formulations (synergy), in words ([1]; pea fiber): synergistic with peracetic acid | bactericidal effect, conclusion in words ([1]; pea fiber): not a strong bactericidal agent | effect when combined with peracetic acid formulations (synergy), in words ([1]; split pea): synergistic with peracetic acid | bactericidal effect, conclusion in words ([1]; split pea): not a strong bactericidal agent | bactericidal effect, conclusion in words ([1]; sprouted flax and chia): bactericidal agent but not very strong | effect when combined with peracetic acid formulations (synergy), in words ([1]; vanilla): synergistic with peracetic acid | bactericidal effect, conclusion in words ([1]; vanilla): not a strong bactericidal agent | effect when combined with peracetic acid formulations (synergy), in words ([1]; whole dried pea): synergistic with peracetic acid | bactericidal effect, conclusion in words ([1]; whole dried pea): not a strong bactericidal agent | Y&M, Av (Y&M (yeast and mold); pea fiber): Y&M not detected | Y&M, n1 (Y&M (yeast and mold); pea fiber): n1, n2 not detected | Y&M, n2 (Y&M (yeast and mold); pea fiber): n1, n2 not detected | Y&M, Av (Y&M (yeast and mold); whole dried pea): Y&M not detected | Y&M, n1 (Y&M (yeast and mold); whole dried pea): n1, n2 not detected | Y&M, n2 (Y&M (yeast and mold); whole dried pea): n1, n2 not detected | Y&M, Av (Y&M (yeast and mold); whole split pea): Y&M not detected | Y&M, n1 (Y&M (yeast and mold); whole split pea): n1, n2 not detected | Y&M, n2 (Y&M (yeast and mold); whole split pea): n1, n2 not detected
